Measurements as given in publication PMC8037182, “Solvothermal Synthesis of Multiple Dihydropyrimidinones at a Time as Inhibitors of Eg5” (Molecules, 2021).

What was measured:
Hela cell line = test: Cytotoxicity MTS assay, Hela cell line; type: cell-based; conditions: for OD490 value, Mean / OD490 value, Well 1 / OD490 value, Well 2 / OD490 value, Well 3: Hela cell line, MTS
Procedure: (§1) The positive compounds (IC50 < 100 μM) obtained from the primary Eg5 motor protein ATPase assay were tested for antiproliferative activity in vitro against Caco-2 cell line, Hela cell line, L929 cell line and T24 cell line by performing MTS assay. Cells were introduced into 96-well plates at a density of 1000 cells per well. After 24 h incubation, the cells were exposed with compounds at final concentrations ranging from 0.5 to 100 µM for 24 h. DMSO was used at a final concentration of 0.025% as blank control, monastrol was used as the positive control. Then 20 µL (CellTiter 96® AQueous One Solution Promega, Madison, WI, USA) reagent was added in each well. After 2 h at 37 °C in a 80% humidified, 5% CO2 atmosphere, the absorbance at 490 nm was recorded using a microplate reader (BIO-RAD iMark^TM). The results were obtained in three independent duplicate experiments. The primary data were shown in Supplementary Materials Tables S4–S7. The IC50 values for these compounds were calculated from a non-linear regression graph plotted between the percentage of cell viability and concentration with SPSS17.0 software.

T24 cell line = test: Cytotoxicity MTS assay, T24 cell line; type: cell-based; conditions: for OD490 Mean / OD490 Well 1 / OD490 Well 2 / OD490 Well 3: T24 cell line
Procedure: as §1

CCOC(=O)c1c(C2NC(=O)NC(C)=C2C(=O)Nc2ccccc2C)[nH]c(C(=O)OC)c1C (centres unmarked) [D2]
OD490 value, Mean (Hela cell line; 0.5μM, first assay): 2.6241
OD490 value, Well 1 (Hela cell line; 0.5μM, first assay): 2.6512
OD490 value, Well 2 (Hela cell line; 0.5μM, first assay): 2.7230
OD490 value, Well 3 (Hela cell line; 0.5μM, first assay): 2.4982
OD490 value, Mean (Hela cell line; 0.5μM, second assay): 2.6365
OD490 value, Well 1 (Hela cell line; 0.5μM, second assay): 2.7038
OD490 value, Well 2 (Hela cell line; 0.5μM, second assay): 2.6687
OD490 value, Well 3 (Hela cell line; 0.5μM, second assay): 2.5371
OD490 value, Mean (Hela cell line; 0.5μM, third assay): 2.6753
OD490 value, Well 1 (Hela cell line; 0.5μM, third assay): 2.5959
OD490 value, Well 2 (Hela cell line; 0.5μM, third assay): 2.8645
OD490 value, Well 3 (Hela cell line; 0.5μM, third assay): 2.5656
OD490 value, Mean (Hela cell line; 1μM, first assay): 2.5821
OD490 value, Well 1 (Hela cell line; 1μM, first assay): 2.5465
OD490 value, Well 2 (Hela cell line; 1μM, first assay): 2.6265
OD490 value, Well 3 (Hela cell line; 1μM, first assay): 2.5734
OD490 value, Mean (Hela cell line; 1μM, second assay): 2.6167
OD490 value, Well 1 (Hela cell line; 1μM, second assay): 2.6874
OD490 value, Well 2 (Hela cell line; 1μM, second assay): 2.5987
OD490 value, Well 3 (Hela cell line; 1μM, second assay): 2.5641
OD490 value, Mean (Hela cell line; 1μM, third assay): 2.6782
OD490 value, Well 1 (Hela cell line; 1μM, third assay): 2.5645
OD490 value, Well 2 (Hela cell line; 1μM, third assay): 2.7848
OD490 value, Well 3 (Hela cell line; 1μM, third assay): 2.6854
OD490 value, Mean (Hela cell line; 10μM, first assay): 2.6025
OD490 value, Well 1 (Hela cell line; 10μM, first assay): 2.4718
OD490 value, Well 2 (Hela cell line; 10μM, first assay): 2.7280
OD490 value, Well 3 (Hela cell line; 10μM, first assay): 2.6077
OD490 value, Mean (Hela cell line; 10μM, second assay): 2.7525
OD490 value, Well 1 (Hela cell line; 10μM, second assay): 2.8301
OD490 value, Well 2 (Hela cell line; 10μM, second assay): 2.6874
OD490 value, Well 3 (Hela cell line; 10μM, second assay): 2.7401
OD490 value, Mean (Hela cell line; 10μM, third assay): 2.6780
OD490 value, Well 1 (Hela cell line; 10μM, third assay): 2.5659
OD490 value, Well 2 (Hela cell line; 10μM, third assay): 2.6898
OD490 value, Well 3 (Hela cell line; 10μM, third assay): 2.7784
OD490 value, Mean (Hela cell line; 25μM, first assay): 2.6414
OD490 value, Well 1 (Hela cell line; 25μM, first assay): 2.4669
OD490 value, Well 2 (Hela cell line; 25μM, first assay): 2.6653
OD490 value, Well 3 (Hela cell line; 25μM, first assay): 2.7919
OD490 value, Mean (Hela cell line; 25μM, second assay): 2.6474
OD490 value, Well 1 (Hela cell line; 25μM, second assay): 2.8835
OD490 value, Well 2 (Hela cell line; 25μM, second assay): 2.4699
OD490 value, Well 3 (Hela cell line; 25μM, second assay): 2.5888
OD490 value, Mean (Hela cell line; 25μM, third assay): 2.6061
OD490 value, Well 1 (Hela cell line; 25μM, third assay): 2.5656
OD490 value, Well 2 (Hela cell line; 25μM, third assay): 2.6632
OD490 value, Well 3 (Hela cell line; 25μM, third assay): 2.5894
OD490 value, Mean (Hela cell line; 50μM, first assay): 2.6499
OD490 value, Well 1 (Hela cell line; 50μM, first assay): 2.7237
OD490 value, Well 2 (Hela cell line; 50μM, first assay): 2.5642
OD490 value, Well 3 (Hela cell line; 50μM, first assay): 2.6617
OD490 value, Mean (Hela cell line; 50μM, second assay): 2.5211
OD490 value, Well 1 (Hela cell line; 50μM, second assay): 2.6654
OD490 value, Well 2 (Hela cell line; 50μM, second assay): 2.5656
OD490 value, Well 3 (Hela cell line; 50μM, second assay): 2.3324
OD490 value, Mean (Hela cell line; 50μM, third assay): 2.6330
OD490 value, Well 1 (Hela cell line; 50μM, third assay): 2.6547
OD490 value, Well 2 (Hela cell line; 50μM, third assay): 2.5655
OD490 value, Well 3 (Hela cell line; 50μM, third assay): 2.6788
OD490 value, Mean (Hela cell line; 100μM, first assay): 1.9886
OD490 value, Well 1 (Hela cell line; 100μM, first assay): 2.0164
OD490 value, Well 2 (Hela cell line; 100μM, first assay): 1.9699
OD490 value, Well 3 (Hela cell line; 100μM, first assay): 1.9794
OD490 value, Mean (Hela cell line; 100μM, second assay): 2.0267
OD490 value, Well 1 (Hela cell line; 100μM, second assay): 1.8863
OD490 value, Well 2 (Hela cell line; 100μM, second assay): 1.9925
OD490 value, Well 3 (Hela cell line; 100μM, second assay): 2.2014
OD490 value, Mean (Hela cell line; 100μM, third assay): 2.0032
OD490 value, Well 1 (Hela cell line; 100μM, third assay): 1.9987
OD490 value, Well 2 (Hela cell line; 100μM, third assay): 2.0123
OD490 value, Well 3 (Hela cell line; 100μM, third assay): 1.9986
IC50 (Hela cell line; MTS assay, 24 h exposure): > 150 µM
IC50 (T24 cell line; MTS assay, 24 h exposure): > 150 µM
OD490 Mean (T24 cell line; 0.5μM, first assay): 1.8524
OD490 Well 1 (T24 cell line; 0.5μM, first assay): 1.8720
OD490 Well 2 (T24 cell line; 0.5μM, first assay): 1.7367
OD490 Well 3 (T24 cell line; 0.5μM, first assay): 1.9486
OD490 Mean (T24 cell line; 0.5μM, second assay): 1.7337
OD490 Well 1 (T24 cell line; 0.5μM, second assay): 1.7425
OD490 Well 2 (T24 cell line; 0.5μM, second assay): 1.7320
OD490 Well 3 (T24 cell line; 0.5μM, second assay): 1.7265
OD490 Mean (T24 cell line; 1μM, first assay): 1.8992
OD490 Well 1 (T24 cell line; 1μM, first assay): 1.8529
OD490 Well 2 (T24 cell line; 1μM, first assay): 2.1141
OD490 Well 3 (T24 cell line; 1μM, first assay): 1.7306
OD490 Mean (T24 cell line; 1μM, second assay): 1.7313
OD490 Well 1 (T24 cell line; 1μM, second assay): 1.6985
OD490 Well 2 (T24 cell line; 1μM, second assay): 1.7321
OD490 Well 3 (T24 cell line; 1μM, second assay): 1.7632
OD490 Mean (T24 cell line; 10μM, first assay): 1.7422
OD490 Well 1 (T24 cell line; 10μM, first assay): 1.5585
OD490 Well 2 (T24 cell line; 10μM, first assay): 1.7096
OD490 Well 3 (T24 cell line; 10μM, first assay): 1.9584
OD490 Mean (T24 cell line; 10μM, second assay): 1.7005
OD490 Well 1 (T24 cell line; 10μM, second assay): 1.6985
OD490 Well 2 (T24 cell line; 10μM, second assay): 1.7032
OD490 Well 3 (T24 cell line; 10μM, second assay): 1.6999
OD490 Mean (T24 cell line; 25μM, first assay): 1.5770
OD490 Well 1 (T24 cell line; 25μM, first assay): 1.7779
OD490 Well 2 (T24 cell line; 25μM, first assay): 1.7471
OD490 Well 3 (T24 cell line; 25μM, first assay): 1.2060
OD490 Mean (T24 cell line; 25μM, second assay): 1.7524
OD490 Well 1 (T24 cell line; 25μM, second assay): 1.7747
OD490 Well 2 (T24 cell line; 25μM, second assay): 1.7842
OD490 Well 3 (T24 cell line; 25μM, second assay): 1.6982
OD490 Mean (T24 cell line; 50μM, first assay): 1.5326
OD490 Well 1 (T24 cell line; 50μM, first assay): 1.7713
OD490 Well 2 (T24 cell line; 50μM, first assay): 1.4256
OD490 Well 3 (T24 cell line; 50μM, first assay): 1.4009
OD490 Mean (T24 cell line; 50μM, second assay): 1.6946
OD490 Well 1 (T24 cell line; 50μM, second assay): 1.6524
OD490 Well 2 (T24 cell line; 50μM, second assay): 1.6895
OD490 Well 3 (T24 cell line; 50μM, second assay): 1.7420
OD490 Mean (T24 cell line; 100μM, first assay): 1.5388
OD490 Well 1 (T24 cell line; 100μM, first assay): 1.4456
OD490 Well 2 (T24 cell line; 100μM, first assay): 1.6062
OD490 Well 3 (T24 cell line; 100μM, first assay): 1.5646
OD490 Mean (T24 cell line; 100μM, second assay): 1.4712
OD490 Well 1 (T24 cell line; 100μM, second assay): 1.4274
OD490 Well 2 (T24 cell line; 100μM, second assay): 1.5020
OD490 Well 3 (T24 cell line; 100μM, second assay): 1.4842
